Experimental data published in patent US20240384268A1, “Oligonucleotides” (Hudson Institute of Medical Research, priority 2021, published 2024).
In the oligonucleotide strings, read from the 5' end, every base follows the letter of its sugar. An asterisk marks phosphorothioate; unmarked linkages are phosphodiester. Other units and linkages are bracketed, terminal groups are in braces. A string of capitals states the bases alone. d = 2'-deoxy (DNA)

target: T1, human TLR7 (Homo sapiens, UniProt Q9NYK1); assay: HEK-TLR7 NF-κB-luciferase reporter, R848 stimulation; type: cell-based; details: HEK-TLR7; 2 μM 3-mer DNA on a PS backbone; R848
T1 construct: HA; host or cells: 293XL-hTLR7-HA (HEK293)
T1 sequence (Q9NYK1 27-1049): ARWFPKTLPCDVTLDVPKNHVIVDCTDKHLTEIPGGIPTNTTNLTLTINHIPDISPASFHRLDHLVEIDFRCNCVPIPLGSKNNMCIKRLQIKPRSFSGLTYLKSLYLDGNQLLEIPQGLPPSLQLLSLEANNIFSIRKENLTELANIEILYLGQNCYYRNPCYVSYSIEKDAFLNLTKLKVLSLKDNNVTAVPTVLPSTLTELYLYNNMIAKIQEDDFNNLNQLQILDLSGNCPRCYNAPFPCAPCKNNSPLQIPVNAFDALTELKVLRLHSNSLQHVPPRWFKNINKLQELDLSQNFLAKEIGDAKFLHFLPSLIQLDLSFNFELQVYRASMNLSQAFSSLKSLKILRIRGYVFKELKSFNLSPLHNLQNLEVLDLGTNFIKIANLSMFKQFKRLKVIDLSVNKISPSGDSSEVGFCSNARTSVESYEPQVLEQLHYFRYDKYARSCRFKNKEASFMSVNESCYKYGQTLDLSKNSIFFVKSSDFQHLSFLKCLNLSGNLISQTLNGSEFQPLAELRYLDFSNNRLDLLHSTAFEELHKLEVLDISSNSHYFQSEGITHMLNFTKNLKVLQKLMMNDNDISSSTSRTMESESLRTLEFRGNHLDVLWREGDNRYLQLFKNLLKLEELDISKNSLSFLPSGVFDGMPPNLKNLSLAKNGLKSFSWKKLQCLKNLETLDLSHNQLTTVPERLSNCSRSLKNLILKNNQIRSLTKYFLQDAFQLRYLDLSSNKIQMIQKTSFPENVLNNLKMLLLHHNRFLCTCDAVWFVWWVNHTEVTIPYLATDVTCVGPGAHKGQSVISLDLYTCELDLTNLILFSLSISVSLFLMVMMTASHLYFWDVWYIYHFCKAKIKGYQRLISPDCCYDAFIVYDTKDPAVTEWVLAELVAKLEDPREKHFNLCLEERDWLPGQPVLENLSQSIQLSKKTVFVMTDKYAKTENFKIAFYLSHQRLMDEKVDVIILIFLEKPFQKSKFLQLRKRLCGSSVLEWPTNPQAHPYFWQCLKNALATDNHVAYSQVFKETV
Method: In such examples, inhibition of TLR7 activity can be identified by observation of an overall decreased TLR7 response of the cell population, or a lower proportion of cells having TLR7-positive activity as compared to positive control condition in which cells are treated with TLR7 agonist in the absence of the oligonucleotide (or in the presence of an appropriate control inhibitory agent). In one example, 293XLhTLR7 (referred to as HEK-TLR7) cells are transfected with pNF-κB-Luc4 reporter, incubated with an oligonucleotide, and then stimulated with R848. TLR7 activity can be determined by a luciferase assay, which measures activated NF-κB by luminescence. TLR7 activity can also be analysed by measuring cytokine levels, for example by ELISA. […] TLR7 activity may then be assessed by the gene or protein expression of TLR7-responsive genes, such as Tnfα and Oas3.
For cGAS stimulations, cells were treated for indicated duration with ASOs, prior to transfection with ISD70 (human cells) or ISD45 (mouse cells) (the ASOs were not washed off prior to ISD transfection unless otherwise indicated). The cGAS ligands ISD45 (Stetson and Medzhitov, 2006) and ISD70 (also known as VACV-70 (Unterholzner et al., 2010)) (Table 1) were resuspended as follows: 5 1d of sense and 5 μl of antisense strands at 10 μg/μl were added to 90 μl PBS under sterile conditions, heated at 75° C. for 30 min, prior to letting cool down at room temperature and aliquoting (stock at 1 μg/1 l). The ISDs were transfected at a concentration of […] at a ratio of 1 μg:1 μl with Lipofectamine 2000 in Opti-MEM (Thermo Fisher Scientific). HEK-TLR3, HEK-TLR7 and […] were treated with indicated concentration of ASOs for 20-50 min, prior to stimulation with poly(I:C) (Invivogen), R848 (Invivogen), Motolimod (MedChemExpress) and the Class B CpG oligonucleotides ODN 2006 (synthesised by IDT and resuspended in RNase-free TE buffer [Table 1]), respectively. The TLR2/1 agonist PAM3CSK4 (Invivogen), the TLR4 agonist lipopolysaccharide (Invivogen), the Class B CpG oligonucleotides ODN 1826 (synthesised by IDT and resuspended in RNase-free TE buffer), the mouse Sting agonist DMXAA (Cayman) and the human STING agonist (compound #3 from (Raanjulu et al., 2018), referred to as GSK herein—kind gift from Cancer Therapeutics CRC, Australia) were used at indicated concentrations. Aspirin (Sigma—A2093) was resuspended in pure medium to 10 mM, filter sterilised and added to the cells at 2 mM final. All ASOs were synthesised by Integrated DNA Technologies (IDT), and resuspended in RNase-free TE buffer, pH 8.0 (Thermo Fisher Scientific). Cell viability was assessed by adding 1× fresh resazurin solution to the wells (10λ solution made up with 7 mg resazurin [Sigma—R7017] dissolved in 3.5 ml PBS, sterile filtered at […]) for 4 h, prior to reading at with a Fluostar OPTIMA (BMG LABTECH) plate-reader (fluorescence: Excitation 535 nm, Emission 590); wells with medium only and 1× resazurin were used as blanks.
Following transfection, the cells were collected from the 6-wells and aliquoted into 96-wells, just before ASO and overnight TLR stimulation (as above described). Similarly, the LL171 cells expressing and ISRE-Luc reporter were treated overnight.

Substance	inhibition of TLR7 by 3-mer DNA PS oligos
dT*dC*dT [TCT]	two most potent DNA 3-mers inhibiting TLR7
dT*dT*dT [TTT]	two most potent DNA 3-mers inhibiting TLR7

target: T2, TLR3 (Homo sapiens, UniProt O15455); assay: HEK-TLR3 NF-κB-luciferase reporter, poly(I:C) stimulation; type: cell-based; design: host or cells: HEK-Blue hTLR3 (HEK293); details: 500 nM ASOs/ODNs, poly(I:C) 1 μg/ml
T2 sequence (O15455 24-904): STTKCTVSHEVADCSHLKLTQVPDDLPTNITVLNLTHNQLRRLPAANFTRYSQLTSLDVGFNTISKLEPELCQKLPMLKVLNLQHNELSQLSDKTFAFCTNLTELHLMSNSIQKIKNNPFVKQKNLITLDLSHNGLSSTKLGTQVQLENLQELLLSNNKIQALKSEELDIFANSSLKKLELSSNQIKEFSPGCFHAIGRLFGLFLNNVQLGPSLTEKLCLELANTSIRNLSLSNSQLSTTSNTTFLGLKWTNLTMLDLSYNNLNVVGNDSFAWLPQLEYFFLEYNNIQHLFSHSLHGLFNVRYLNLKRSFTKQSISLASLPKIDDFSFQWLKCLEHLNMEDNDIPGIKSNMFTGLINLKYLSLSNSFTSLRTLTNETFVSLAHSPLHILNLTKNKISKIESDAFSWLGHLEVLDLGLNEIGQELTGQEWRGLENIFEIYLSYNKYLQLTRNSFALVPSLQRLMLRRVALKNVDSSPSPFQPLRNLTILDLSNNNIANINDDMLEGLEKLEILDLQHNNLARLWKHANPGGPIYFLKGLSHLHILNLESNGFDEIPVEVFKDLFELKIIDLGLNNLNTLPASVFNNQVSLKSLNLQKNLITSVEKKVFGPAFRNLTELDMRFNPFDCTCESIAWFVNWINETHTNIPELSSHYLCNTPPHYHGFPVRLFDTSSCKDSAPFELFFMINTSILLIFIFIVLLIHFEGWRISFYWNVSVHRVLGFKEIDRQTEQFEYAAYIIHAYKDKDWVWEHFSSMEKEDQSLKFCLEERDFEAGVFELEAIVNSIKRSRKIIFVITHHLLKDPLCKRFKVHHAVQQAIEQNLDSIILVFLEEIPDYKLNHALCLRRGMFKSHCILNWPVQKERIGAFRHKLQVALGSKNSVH

Substance	inhibition of polyI:C sensing by TLR3 at 500 nM (in words)
T*G*C* T*T*G* A*C*A* T*C*C* T*G*G* A*G*G* G*G*T* T*G*T (TGCTTGACATCCTGGAGGGGTTGT; DNA, all phosphorothioate, methylation of C not given here) [IRS957, reference compound]	blocked polyL:C sensing
T*G*C* T*T*G* C*A*A* G*C*T* T*G*C* A*A*G* C*A (TGCTTGCAAGCTTGCAAGCA; DNA, all phosphorothioate, methylation of C not given here) [IRS661, reference compound]	blocked polyL:C sensing
T*T*C* A*A*A* T*T*C* A*A*A* T*T*C* A*A*A* T*T*C* A*A*A (dT*dT*dC*dA*dA*dA*dT*dT*dC*dA*dA*dA*dT*dT*dC*dA*dA*dA*dT*dT*dC*dA*dA*dA) [C151, reference compound]	only partially reduced polyL:C-dependent TLR3 activation

same assay, conditions: 2 μM 3-mer DNA PS, 500 ng/ml polyI:C

Substance	inhibition of TLR3 sensing by 3-mer DNA PS oligos
dT*dA*dC [TAC]	strongest DNA 3-mer

same assay, conditions: 3-mers DNA PS 45 min, then 500 ng/ml polyI:C overnight, NF-κB-luciferase normalised to polyI:C only (Ligand 1.000, NT 0.000)

Substance	TLR3 2uM
dA*dA*dT [AAT]	0.877
dA*dC*dT [ACT]	0.818
dA*dG*dT [AGT]	0.865
dA*dT*dA [ATA]	0.827
dA*dT*dC [ATC]	0.834
dA*dT*dG [ATG]	0.849
dA*dT*dT [ATT]	1.012
dC*dA*dT [CAT]	0.828
dC*dC*dT [CCT]	0.914
dC*dG*dT [CGT]	0.755
dC*dT*dA [CTA]	0.864
dC*dT*dC [CTC]	0.911
dC*dT*dG [CTG]	0.843
dC*dT*dT [CTT]	0.901
dG*dA*dT [GAT]	0.864
dG*dC*dT [GCT]	0.998
dG*dG*dT [GGT]	0.959
dG*dT*dA [GTA]	0.818
dG*dT*dC [GTC]	0.914

Substance	TLR3 2uM
dG*dT*dG [GTG]	0.929
dG*dT*dT [GTT]	1.009
dT*dA*dA [TAA]	0.968
dT*dA*dC [TAC]	0.704
dT*dA*dG [TAG]	0.769
dT*dA*dT [TAT]	0.877
dT*dC*dA [TCA]	0.792
dT*dC*dC [TCC]	0.868
dT*dC*dG [TCG]	0.931
dT*dC*dT [TCT]	1.230
dT*dG*dA [TGA]	0.743
dT*dG*dC [TGC]	0.795
dT*dG*dG [TGG]	0.773
dT*dG*dT [TGT]	0.884
dT*dT*dA [TTA]	0.855
dT*dT*dC [TTC]	0.928
dT*dT*dG [TTG]	0.990
dT*dT*dT [TTT]	1.139
